Results reported in patent US7863302B2, “Compounds and methods for modulating FX-receptors” (Eli Lilly and Company, priority 2006, dated 2011).

Legend:
[1] = target: T1, human FXR ligand-binding domain (Homo sapiens, UniProt Q96RI1); assay: FXR-SRC-1 Cofactor Recruitment Assay (Alpha Screen); format: biochemical; settings: SRC-1 FXR interaction, 4 hours at room temperature
T1 construct: 6-HIS
T1 sequence (Q96RI1 242-472 isoform Q96RI1-2 limits assumed): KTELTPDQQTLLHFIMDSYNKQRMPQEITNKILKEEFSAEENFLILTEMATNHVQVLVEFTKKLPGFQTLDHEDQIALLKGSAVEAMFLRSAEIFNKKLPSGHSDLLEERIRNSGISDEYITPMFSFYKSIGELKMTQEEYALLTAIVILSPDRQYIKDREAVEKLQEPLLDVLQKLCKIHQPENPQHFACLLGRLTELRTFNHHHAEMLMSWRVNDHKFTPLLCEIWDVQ
T1 sequence (Q15788 600-774 partner limits assumed): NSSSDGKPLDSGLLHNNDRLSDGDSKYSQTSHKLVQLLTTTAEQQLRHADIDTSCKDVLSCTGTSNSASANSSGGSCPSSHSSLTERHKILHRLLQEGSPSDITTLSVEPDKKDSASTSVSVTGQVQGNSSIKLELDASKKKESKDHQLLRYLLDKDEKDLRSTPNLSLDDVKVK
Procedure: FXR-SRC-1 Cofactor Recruitment Assay
Compounds are tested in concentration-response curves by an FXR-SRC-1 Cofactor Recruitment assay using the Alpha (Amplified Luminescent Proximity Homogeneous Assay) Screen technology according to the manufacturer instructions (Perkin Elmer). Briefly, purified 6-HIS-tagged human FXR ligand-binding domain (amino acids 242-472), purified GST-tagged human SRC-1 nuclear receptor-interacting domain (amino acids 220-394), Nickel Chelate donor beads (Perkin Elmer) and Anti-GST antibody acceptor beads (Perkin Elmer) are mixed together and 12 μL per well is aliquoted into 384 well plates. Add compounds in 3 μL per well for a total assay volume of 15 μL and incubate at room temperature in the dark for 4 hours. After incubation, compounds that bind FXR and induce the interaction between the FXR and SRC-1 would bring the two bead types into proximity generating luminescence that is quantified using a Packard Fusion instrument. Calculate EC50 values for each test compound. Compounds of the invention are found to be effective in the SRC-1 FXR interaction assay with EC50 of about 365-3000 nM.

LDLR−/− mice = assay: LDLR−/− Serum Lipid Modulation; format: in vivo; settings: 10 mg/kg once daily by oral gavage for seven days, male LDLR−/− mice on western diet
Procedure: LDLR−/− Serum Lipid Modulation
Acquire LDLR−/− mice from Jackson Laboratories (Stock number 002207, Bar Harbor, Me., USA). Acclimate animals for one week prior to study initiation. House mice individually in polycarbonate cages with filter tops, and maintain mice on a 12:12 hour light-dark cycle (lights on at 6:00 AM) at 21° C. Provide deionized water ad libitum and maintain for two weeks on ‘western diet’ TD 98137 Diet (42% fat, 0.15% cholesterol, Harlan Teklad) ad libitum. Optimize groups of five ten-week-old male LDLR−/− mice based on serum triglyceride and cholesterol levels. Dose groups once daily by oral gavage with various doses of the test compound for seven days. At the end of the seven-day dosing period, collect blood by tail clip for clinical chemistry assessment. Measure serum triglycerides, glucose, and total cholesterol using standard clinical chemistry instrumentation and reagents (Roche Diagnostic, Indianapolis, Ind., USA). Asphyxiate mice in a CO2 chamber. Perform cardiac puncture to collect blood samples for serum FPLC analysis. Assay pooled serum samples for lipoprotein cholesterol fraction values (VLDL, LDL, HDL) by separation on a size exclusion column (Superose® 6HR, Pharmacia Biotech AB, Uppsala, Sweden) with in-line determination of cholesterol.

Cc1cc(OCc2c(-c3ccccc3OC(F)(F)F)noc2C2CC2)ccc1-c1ccc2c(C(=O)O)cn(C)c2c1 [Example 7, 6-{4-[5-Cyclopropyl-3-(2-trifluoromethoxy-phenyl)-isoxazol-4-ylmethoxy]-2-methyl-phenyl}-1-methyl-1H-indole-3-carboxylic acid]
EC50 [1]: 1300 nM | lowers total cholesterol (LDLR−/− mice): 63% | lowers triglycerides (LDLR−/− mice): 61%
